Data from patent US12319648B2, “Fluorinated phenylacetic acid derivatives in a weed control method” (SYNGENTA CROP PROTECTION AG, priority 2019, dated 2025).

Legend:
Type in all cases: in vivo
[1] = test system: Amaranthus retoflexus (AMARE); experiment: Post-emergence herbicidal glasshouse test; settings: for percentage damage caused to the plant, five-point scale, AMARE: post-emergence, 250 g/ha, 13 days after application; for % phytotoxicity AMARE: comparative post-emergence test
Procedure: (§1) Seeds of a variety of test species are shown in standard soil in pots Amaranthus retoflexus (AMARE), Ipomoea hederacea (IPOHE), Solanum nigrum (SOLNI), Lolium perenne (LOLPE). Echinochloa crus-galli (ECHCG), Setaria faberi (SETFA)). After cultivation for one day (pre-emergence) or after 8 days cultivation (post-emergence) under controlled conditions in a glasshouse (at 24/16° C., day/night; 14 hours light; 65% humidity), the plants are sprayed with an aqueous spray solution derived from the formulation of the technical active ingredient in acetone/water (50:50) solution containing 0.5% Tween 20 (polyoxyethylene sorbitan monolaurate, CAS RN 9005-64-5). Compounds are applied at 250 g/ha unless otherwise stated. The test plants are then grown in a glasshouse under controlled conditions in a glasshouse (at 24/16° C., day/night; 14 hours light; 65% humidity) and watered twice daily. After 13 days for pre and post-emergence, the test is evaluated for the percentage damage caused to the plant. The biological activities are shown in the following table on a five-point scale (5=81-100%; 4=61-80%; 3=41-60%; 2=21-40%; 1=0-20%).
(§2) Using the experimental conditions outlined above, a further test is conducted to compare the herbicidal properties of the difluro containing compound (1.014) with a representative compound (C1) referred to in GB901553. The compounds are applied at 1000 g/ha and 500 g/ha. The test is evaluated for the percentage damage caused to the plant (% phytotoxicity).

[2] = test system: Echinochloa crus-galli (ECHCG); experiment: Post-emergence herbicidal glasshouse test; settings: for percentage damage caused to the plant, five-point scale, ECHCG: post-emergence, 250 g/ha, 13 days after application; for % phytotoxicity ECHCG: comparative post-emergence test
Procedure: as §1, §2

[3] = test system: Ipomoea hederacea (IPOHE); experiment: Post-emergence herbicidal glasshouse test; settings: for percentage damage caused to the plant, five-point scale, IPOHE: post-emergence, 250 g/ha, 13 days after application; for % phytotoxicity IPOHE: comparative post-emergence test
Procedure: as §1, §2

[4] = test system: Lolium perenne (LOLPE); experiment: Post-emergence herbicidal glasshouse test; settings: for percentage damage caused to the plant, five-point scale, LOLPE: post-emergence, 250 g/ha, 13 days after application; for % phytotoxicity LOLPE: comparative post-emergence test
Procedure: as §1, §2

[5] = test system: Setaria faberi (SETFA); experiment: Post-emergence herbicidal glasshouse test; settings: for percentage damage caused to the plant, five-point scale, SETFA: post-emergence, 250 g/ha, 13 days after application; for % phytotoxicity SETFA: comparative post-emergence test
Procedure: as §1, §2

[6] = test system: Solanum nigrum (SOLNI); experiment: Post-emergence herbicidal glasshouse test; settings: for percentage damage caused to the plant, five-point scale, SOLNI: post-emergence, 250 g/ha, 13 days after application; for % phytotoxicity SOLNI: comparative post-emergence test
Procedure: as §1, §2

[7] = test system: Amaranthus retoflexus (AMARE); experiment: Pre-emergence herbicidal glasshouse test; settings: for percentage damage caused to the plant, five-point scale, AMARE: pre-emergence, 250 g/ha, 13 days after application; for % phytotoxicity AMARE: comparative pre-emergence test
Procedure: as §1, §2

[8] = test system: Echinochloa crus-galli (ECHCG); experiment: Pre-emergence herbicidal glasshouse test; settings: for percentage damage caused to the plant, five-point scale, ECHCG: pre-emergence, 250 g/ha, 13 days after application; for % phytotoxicity ECHCG: comparative pre-emergence test
Procedure: as §1, §2

[9] = test system: Ipomoea hederacea (IPOHE); experiment: Pre-emergence herbicidal glasshouse test; settings: for percentage damage caused to the plant, five-point scale, IPOHE: pre-emergence, 250 g/ha, 13 days after application; for % phytotoxicity IPOHE: comparative pre-emergence test
Procedure: as §1, §2

[10] = test system: Lolium perenne (LOLPE); experiment: Pre-emergence herbicidal glasshouse test; settings: for percentage damage caused to the plant, five-point scale, LOLPE: pre-emergence, 250 g/ha, 13 days after application; for % phytotoxicity LOLPE: comparative pre-emergence test
Procedure: as §1, §2

[11] = test system: Setaria faberi (SETFA); experiment: Pre-emergence herbicidal glasshouse test; settings: for percentage damage caused to the plant, five-point scale, SETFA: pre-emergence, 250 g/ha, 13 days after application; for % phytotoxicity SETFA: comparative pre-emergence test
Procedure: as §1, §2

[12] = test system: Solanum nigrum (SOLNI); experiment: Pre-emergence herbicidal glasshouse test; settings: for percentage damage caused to the plant, five-point scale, SOLNI: pre-emergence, 250 g/ha, 13 days after application; for % phytotoxicity SOLNI: comparative pre-emergence test
Procedure: as §1, §2

## O=C(O)C(F)(F)c1cc(Cl)cc(Cl)c1 [Compound 1.007]
[1]
  percentage damage caused to the plant, five-point scale, AMARE: 3 (3=41-60%)
[2]
  percentage damage caused to the plant, five-point scale, ECHCG: 1 (1=0-20%)
[3]
  percentage damage caused to the plant, five-point scale, IPOHE: 1 (1=0-20%)
[4]
  percentage damage caused to the plant, five-point scale, LOLPE: 1 (1=0-20%)
[5]
  percentage damage caused to the plant, five-point scale, SETFA: 1 (1=0-20%)
[6]
  percentage damage caused to the plant, five-point scale, SOLNI: 3 (3=41-60%)
[7]
  percentage damage caused to the plant, five-point scale, AMARE: 1 (1=0-20%)
[8]
  percentage damage caused to the plant, five-point scale, ECHCG: 1 (1=0-20%)
[9]
  percentage damage caused to the plant, five-point scale, IPOHE: 1 (1=0-20%)
[10]
  percentage damage caused to the plant, five-point scale, LOLPE: 1 (1=0-20%)
[11]
  percentage damage caused to the plant, five-point scale, SETFA: 1 (1=0-20%)
[12]
  percentage damage caused to the plant, five-point scale, SOLNI: 1 (1=0-20%)

## O=C(O)C(F)(F)c1ccccc1Cl [Compound 1.011]
[1]
  percentage damage caused to the plant, five-point scale, AMARE: 5 (5=81-100%)
[2]
  percentage damage caused to the plant, five-point scale, ECHCG: 1 (1=0-20%)
[3]
  percentage damage caused to the plant, five-point scale, IPOHE: 3 (3=41-60%)
[4]
  percentage damage caused to the plant, five-point scale, LOLPE: 1 (1=0-20%)
[5]
  percentage damage caused to the plant, five-point scale, SETFA: 1 (1=0-20%)
[6]
  percentage damage caused to the plant, five-point scale, SOLNI: 5 (5=81-100%)
[7]
  percentage damage caused to the plant, five-point scale, AMARE: 5 (5=81-100%)
[8]
  percentage damage caused to the plant, five-point scale, ECHCG: 1 (1=0-20%)
[9]
  percentage damage caused to the plant, five-point scale, IPOHE: 4 (4=61-80%)
[10]
  percentage damage caused to the plant, five-point scale, LOLPE: 1 (1=0-20%)
[11]
  percentage damage caused to the plant, five-point scale, SETFA: 2 (2=21-40%)
[12]
  percentage damage caused to the plant, five-point scale, SOLNI: 4 (4=61-80%)

## O=C(O)C(F)(F)c1cc(Cl)ccc1Cl [Compound 1.012]
[1]
  percentage damage caused to the plant, five-point scale, AMARE: 4 (4=61-80%)
[2]
  percentage damage caused to the plant, five-point scale, ECHCG: 1 (1=0-20%)
[3]
  percentage damage caused to the plant, five-point scale, IPOHE: 3 (3=41-60%)
[4]
  percentage damage caused to the plant, five-point scale, LOLPE: 1 (1=0-20%)
[5]
  percentage damage caused to the plant, five-point scale, SETFA: 1 (1=0-20%)
[6]
  percentage damage caused to the plant, five-point scale, SOLNI: 4 (4=61-80%)
[7]
  percentage damage caused to the plant, five-point scale, AMARE: 4 (4=61-80%)
[8]
  percentage damage caused to the plant, five-point scale, ECHCG: 1 (1=0-20%)
[9]
  percentage damage caused to the plant, five-point scale, IPOHE: 3 (3=41-60%)
[10]
  percentage damage caused to the plant, five-point scale, LOLPE: 1 (1=0-20%)
[11]
  percentage damage caused to the plant, five-point scale, SETFA: 1 (1=0-20%)
[12]
  percentage damage caused to the plant, five-point scale, SOLNI: 3 (3=41-60%)

## O=C(O)C(F)(F)c1cccc(Cl)c1Cl [Compound 1.014]
[1]; 500 g/ha
  % phytotoxicity AMARE: 100%
[1]; 1000 g/ha
  % phytotoxicity AMARE: 100%
[1]
  percentage damage caused to the plant, five-point scale, AMARE: 5 (5=81-100%)
[2]; 500 g/ha
  % phytotoxicity ECHCG: 80%
[2]; 1000 g/ha
  % phytotoxicity ECHCG: 90%
[2]
  percentage damage caused to the plant, five-point scale, ECHCG: 5 (5=81-100%)
[3]; 500 g/ha
  % phytotoxicity IPOHE: 90%
[3]; 1000 g/ha
  % phytotoxicity IPOHE: 90%
[3]
  percentage damage caused to the plant, five-point scale, IPOHE: 5 (5=81-100%)
[4]; 500 g/ha
  % phytotoxicity LOLPE: 10%
[4]; 1000 g/ha
  % phytotoxicity LOLPE: 20%
[4]
  percentage damage caused to the plant, five-point scale, LOLPE: 1 (1=0-20%)
[5]; 500 g/ha
  % phytotoxicity SETFA: 90%
[5]; 1000 g/ha
  % phytotoxicity SETFA: 90%
[5]
  percentage damage caused to the plant, five-point scale, SETFA: 5 (5=81-100%)
[6]; 500 g/ha
  % phytotoxicity SOLNI: 100%
[6]; 1000 g/ha
  % phytotoxicity SOLNI: 100%
[6]
  percentage damage caused to the plant, five-point scale, SOLNI: 5 (5=81-100%)
[7]; 500 g/ha
  % phytotoxicity AMARE: 90%
[7]; 1000 g/ha
  % phytotoxicity AMARE: 100%
[7]
  percentage damage caused to the plant, five-point scale, AMARE: 5 (5=81-100%)
[8]; 500 g/ha
  % phytotoxicity ECHCG: 30%
[8]; 1000 g/ha
  % phytotoxicity ECHCG: 80%
[8]
  percentage damage caused to the plant, five-point scale, ECHCG: 5 (5=81-100%)
[9]; 500 g/ha
  % phytotoxicity IPOHE: 80%
[9]; 1000 g/ha
  % phytotoxicity IPOHE: 90%
[9]
  percentage damage caused to the plant, five-point scale, IPOHE: 5 (5=81-100%)
[10]; 500 g/ha
  % phytotoxicity LOLPE: 10%
[10]; 1000 g/ha
  % phytotoxicity LOLPE: 40%
[10]
  percentage damage caused to the plant, five-point scale, LOLPE: 1 (1=0-20%)
[11]; 500 g/ha
  % phytotoxicity SETFA: 90%
[11]; 1000 g/ha
  % phytotoxicity SETFA: 90%
[11]
  percentage damage caused to the plant, five-point scale, SETFA: 4 (4=61-80%)
[12]; 500 g/ha
  % phytotoxicity SOLNI: 100%
[12]; 1000 g/ha
  % phytotoxicity SOLNI: 100%
[12]
  percentage damage caused to the plant, five-point scale, SOLNI: 5 (5=81-100%)

## O=C(O)C(F)(F)c1cccc(Cl)c1F [Compound 1.029]
[1]
  percentage damage caused to the plant, five-point scale, AMARE: 5 (5=81-100%)
[2]
  percentage damage caused to the plant, five-point scale, ECHCG: 2 (2=21-40%)
[3]
  percentage damage caused to the plant, five-point scale, IPOHE: 3 (3=41-60%)
[4]
  percentage damage caused to the plant, five-point scale, LOLPE: 1 (1=0-20%)
[5]
  percentage damage caused to the plant, five-point scale, SETFA: 3 (3=41-60%)
[6]
  percentage damage caused to the plant, five-point scale, SOLNI: 4 (4=61-80%)
[7]
  percentage damage caused to the plant, five-point scale, AMARE: 5 (5=81-100%)
[8]
  percentage damage caused to the plant, five-point scale, ECHCG: 1 (1=0-20%)
[9]
  percentage damage caused to the plant, five-point scale, IPOHE: 3 (3=41-60%)
[10]
  percentage damage caused to the plant, five-point scale, LOLPE: 2 (2=21-40%)
[11]
  percentage damage caused to the plant, five-point scale, SETFA: 2 (2=21-40%)
[12]
  percentage damage caused to the plant, five-point scale, SOLNI: 5 (5=81-100%)
